In this experiment the test system is S. aureus ATCC 25923. Put plainly: Phototoxicity test c.2) (BlueV light source, emission maximum approx. 420 nm, CFU count). To be noted: Staphylococcus aureus, ATCC25923, light or radiation study, 5 min, irradiation 5 minutes, approx. 420 nm, 17.5 mW/cm^2, 5.3 J/cm^2, vs reference control; for log reduction at 10 µM: read-out: Effectiveness against S. aureus: Reduction in CFU in log10 at concentration of 10 μM; for log reduction at 50 µM: read-out: Effectiveness against S. aureus: Reduction in CFU in log10 at concentration of 50 μM. Type of experiment: cell-based, Staphylococcus aureus. As for the experimental part: A sample of the bacterial cell Staphylococcus. aureus (ATCC number: 25923) or Escherichia. coli (ATCC number: 25922) was removed from a cryo-freeze culture and cultured under aerobic conditions at 37° C. and 175 rpm overnight in an orbital shaker (MAXQ4000, Thermo Scientific, Dubuque, Iowa, USA). Growth was carried out in 20 mL Todd-Hewitt broth (Carl Roth, Karlsruhe, Germany) supplemented with 0.3% of yeast extract (AppliChem, Darmstadt, Germany). In a second experiment, the photosensitizers (PS) used were dissolved in Millipore water and adjusted to various concentrations. 25 μL of a bacterial suspension grown overnight ( 108/mL) was incubated with 25 μL of photosensitizer solution of the various concentrations at room temperature for 10 seconds in darkness in a 96-well plate. Next, the suspension was irradiated for 5-20 minutes. For the irradiation, the light source BlueV from […], Germany) was used, which emits light from 380 to 480 nm (emission maximum at approximately 420 nm). The applied energy density was 17.5 mW/cm^2. Each experiment was accompanied by three controls in order to exclude side effect of the irradiation/photosensitizer (PS) on the survival of the bacteria: (i) no PS, only light (=light control), (ii) no light, only PS (=dark control) and (iii) neither light nor PS (=reference control). […] All of the tests were carried out four times. […] All of the remaining PS were tested against S. aureus ATCC 25923 (FIGS. 24-33). FIGS. 21-33 show the logarithmic reduction after illumination with respect to the reference control. […] The irradiation period was 5 minutes (emission maximum at approximately 420 nm) for an applied intensity of 17.5 mW/cm^2, i.e. an applied light energy (dosage) of 5.3 J/cm^2. The average reference control (arithmetic mean with standard deviation) (no light, no PS) was 3.9×10^8/mL. The logarithmic reduction after illumination is shown with respect to the reference control.

`COc1cc(/C=C/C(=O)CC(=O)/C=C/c2ccc(OCCN)c(OC)c2)ccc1OCCN.Cl.Cl` [Curcumin 01a hydrochloride]: the log reduction at 10 µM is above 3 and the log reduction at 50 µM was above 5.

For the compound `Cl.Cl.Cl.Cl.NCCOc1ccc(/C=C/C(=O)CC(=O)/C=C/c2ccc(OCCN)c(OCCN)c2)cc1OCCN` [Curcumin 03 hydrochloride], the log reduction at 10 µM is above 4 and the log reduction at 50 µM is above 5.

The values are drawn from patent US11191855B2, “1,7-diaryl-1,6-heptadiene-3,5-dione derivatives, methods for the production and use thereof” (UNIVERSITÄTSKLINIKUM REGENSBURG, priority 2015, dated 2021).
